Measured values: EP0294292A2, “Derivative of benzo[b]thiophene-7-carboxylic acid, process for its preparation and pharmaceutical compositions containing it” (ADIR ET COMPAGNIE, priority 1987, dated 1988)

System: récepteurs 5HT - 3
Experiment: Inhibition of the Bezold-Jarisch effect (reflex bradycardia after i.v. serotonin) in the anaesthetised rat
Format: in vivo
Text: Cette propriété est indicatrice d'un effet antagoniste des récepteurs 5HT - 3.
Cette étude est réalisée sur des rats Charles River d'un poids compris entre 350 et 400 g anesthésiés par une dose de 1,25 g.kg⁻¹ d'uréthanne administré intrapéritonéalement. La pression artérielle est enregistrée au niveau d'une artère carotide au moyen d'une cellule de pression Statham P 23 dB. La fréquence cardiaque est enregistrée à partir de la pression artérielle en utilisant un cardiotachymètre. Les enregistrements sont réalisés sur un enregistreur GOULD 2400. Un cathéter est placé dans la veine jugulaire et atteint l'oreillette droite de l'animal. L'effet Bezold-Jarisch est provoqué par une injection rapide de sérotonine à la dose de 40 µg/kg par voie intraveineuse dans l'oreillette droite. Le ralentissement cardiaque est associé à une chute de la pression artérielle qui provient de la stimulation des fibres afférentes vagales principalement localisées dans le ventricule droit.
Les produits à tester sont administrés par voie intraveineuse aux doses de 10 µg/kg, 100 µg/kg et 1 mg/kg. Un effet Bezold-Jarisch est provoqué 5, 15, 30, 45, 60, 90 et 120 minutes après injection des produits testés.
Le pourcentage d'inhibition de la bradycardie réflexe est évalué à partir du tracé de fréquence cardiaque. Les pourcentages d'inhibition provoqués par le produit de l'invention, ses isomères, des produits structuralement voisins, ainsi que par le produit de référence ICS 205930 sont indiqués dans le tableau I qui donne l'inhibition en % du réflexe Bezold chez le rat en fonction du temps; tous les produits ont été administrés par voie i.v à la même dose de 10 µg/kg.; les tests ont été réalisés sur 8 animaux.

| SMILES | effet Bezold-Jarisch (bradycardie et hypotension après injection de sérotonine) (rat, i.v., doses between 10 µg/kg and 1 mg/kg, result in words) | activité antagoniste 5HT₃ (summary in words, refers to tableau I) | Inhibition % après 15 min. (inhibition of reflex bradycardia (Bezold reflex), rat, i.v. 10 µg/kg, 15 min after injection, serotonin 40 µg/kg i.v., 8 animals) [%] | Inhibition % après 30 min. (inhibition of reflex bradycardia (Bezold reflex), rat, i.v. 10 µg/kg, 30 min after injection, serotonin 40 µg/kg i.v., 8 animals) [%] | Inhibition % après 60 min. (inhibition of reflex bradycardia (Bezold reflex), rat, i.v. 10 µg/kg, 60 min after injection, serotonin 40 µg/kg i.v., 8 animals) [%] | Inhibition % après 120 min. (inhibition of reflex bradycardia (Bezold reflex), rat, i.v. 10 µg/kg, 120 min after injection, serotonin 40 µg/kg i.v., 8 animals) |
| --- | --- | --- | --- | --- | --- | --- |
| CN1C2CCC1CC(OC(=O)c1cccc3ccsc13)C2 (stereo not drawn) [Exemple 1, Chlorhydrate d'endo [(méthyl - 8 aza - 8 bicyclo [3.2.1]octyl - 3)oxycarbonyl] - 7 benzo [b] thiphène] | antagonise de façon intense et prolongée | actif | – | – | – | – |
| CN1[C@@H]2CC[C@H]1C[C@@H](OC(=O)c1c[nH]c3ccccc13)C2 [ICS 205-930] | – | – | 79 | 65 | 14 | inactif |
